Results as given in patent publication US20130324489A1, “NEW ANTIFUNGAL COMPOSITIONS” (DSM IP ASSETS B.V., priority 2011, published 2013).
“And” between values parts separate entries of the source, which are not always exact repeats. Identical values can stand only once.

Key:
Botrytis cinerea [1] = experiment: Treatment of wounded strawberries inoculated with Botrytis cinerea (dip, mould growth); assay type: in vivo; conditions: 20° C.
Description: Ten fresh, organic strawberries were used per treatment. Each strawberry was wounded with a 0.5 mm long cut and each wound was inoculated with 10 μl of a Botrytis cinerea suspension containing 1×10^5 of spores/ml. […] The antifungal composition also comprised 3.1% (w/w) beeswax, 0.76% (w/w) glycerol, 0.66% (w/w) polyoxyethylene sorbitan monostearate (Tween 60), 0.03% (w/w) methylhydroxyethyl-cellulose (MHEC), 0.02% (w/w) xanthan gum, 0.02% (w/w) anti-foaming agent, 0.15% (w/w) citric acid and 0.01% (w/w) potassium sorbate. The pH of the compositions was 4. A composition without natamycin or procymidone was used as control. The treated strawberries were incubated in a closed box in the dark at 20° C. for 13 days.
During incubation, mould growth on the strawberries was assessed in a twofold manner: (i) the number of moulded strawberries per total of 10 strawberries was counted; and (ii) the antifungal activity (in %) of the individual and combined active ingredients was determined by calculating the reduction in mould growth observed on the strawberries treated with the antifungal composition in comparison to the mould growth on the strawberries treated with the control composition. The expected antifungal activity (E in %) of the combined antifungal composition comprising both active ingredients was calculated according to the Colby equation (Colby, 1967): […]
wherein X and Y are the observed antifungal activities (in %) of the individual active ingredients X and Y, respectively. If the observed antifungal activity (O in %) of the combination exceeds the expected antifungal activity (E in %) of the combination and the synergy factor O/E is thus >1.0, the combined application of the active ingredients leads to a synergistic antifungal effect.
The treated strawberries were assessed on mould growth after 4, 5 and 7 days of incubation according to the two methods described in Example 3.
The treated strawberries were incubated for 9 days and, as of day 5, assessed on mould growth daily. The antifungal activity (in %) of the individual and combined active ingredients was determined according to the method described in Example 3.
During incubation, the treated strawberries were assessed on mould growth according to the two methods described in Example 3.

Penicillium italicum = experiment: Treatment of wounded mandarins inoculated with Penicillium italicum (dip, mould growth); assay type: in vivo; conditions: 500 ppm natamycin, 2000 ppm procymidone or both, 20° C.
Description: Ten fresh, organic mandarins were used per treatment. The peel of each mandarin was wounded once using a cork borer according to the method described by de Lapeyre de Bellaire and Dubois (1987). Subsequently, each wound was inoculated with 10 μl of a Penicillium italicum suspension containing 1×10^4 of spores/ml. […] In addition, the antifungal compositions comprised 3.1% (w/w) beeswax, 0.76% (w/w) glycerol, 0.66% (w/w) polyoxyethylene sorbitan monostearate (Tween 60), 0.03% (w/w) methylhydroxyethylcellulose (MHEC), 0.02% (w/w) xanthan gum, 0.02% (w/w) anti-foaming agent, 0.15% (w/w) citric acid and 0.01% (w/w) potassium sorbate. The pH of the compositions was 4. A composition without natamycin or procymidone was used as control.
The treated mandarins were incubated in a closed box in the dark at 20° C. and assessed on mould growth after 6, 8, 10, 13, 15 and 18 days of incubation. The antifungal activity (in %) of the individual and combined active ingredients was determined by calculating the reduction in mould growth observed on the mandarins treated with the antifungal composition in comparison to the mould growth on the mandarins treated with the control composition according to the Colby method (Colby, 1967) described in Example 3.

Botrytis cinerea [2] = experiment: In vitro antifungal activity, 96-well microtiter plates; assay type: cell-based; conditions: 1.25 ppm natamycin, 25° C.
Description: The following compositions were tested: […] After incubation of the microtiter plates at 25° C., the in vitro antifungal activity (%) of the individual active ingredients was assessed by calculating the reduction in mould growth observed in the presence of the active ingredient in comparison to the mould growth observed in the absence of the active ingredient. The expected antifungal activity (E in %) of the active ingredient combination was calculated according to the Colby equation (Colby, 1967): […] wherein X and Y are the observed antifungal activities (in %) of the individual active ingredients X and Y, respectively.

[3] = 250 ppm natamycin, 250 ppm procymidone or both, day 4
[4] = 250 ppm natamycin, 250 ppm procymidone or both, day 5
[5] = 250 ppm natamycin, 250 ppm procymidone or both, day 6
[6] = 250 ppm natamycin, 250 ppm procymidone or both, day 7
[7] = 250 ppm natamycin, 250 ppm procymidone or both, day 8
[8] = 250 ppm natamycin, 250 ppm procymidone or both, day 9
[9] = 500 ppm natamycin, 1000 ppm procymidone or both, day 5
[10] = 500 ppm natamycin, 1000 ppm procymidone or both, day 7
[11] = 500 ppm natamycin, 2000 ppm procymidone or both, day 5
[12] = 500 ppm natamycin, 2000 ppm procymidone or both, day 6
[13] = 500 ppm natamycin, 2000 ppm procymidone or both, day 7
[14] = 500 ppm natamycin, 2000 ppm procymidone or both, day 12

## C[C@@H]1C/C=C/C=C/C=C/C=C/[C@H](O[C@@H]2O[C@H](C)[C@@H](O)[C@H](N)[C@@H]2O)C[C@@H]2O[C@](O)(C[C@@H](O)C[C@H]3O[C@@H]3/C=C/C(=O)O1)C[C@H](O)[C@H]2C(=O)O [Natamycin, natamycin]
Botrytis cinerea [1]; [3]
  Number of moulded strawberries/total number of 10 strawberries: 4 and 4/10
  Observed antifungal activity O (%): 53%
Botrytis cinerea [1]; [4]
  Number of moulded strawberries/total number of 10 strawberries: 7 and 7/10
  Observed antifungal activity O (%): 34%
Botrytis cinerea [1]; [5]
  Number of moulded strawberries/total number of 10 strawberries: 9 and 9/10
  Observed antifungal activity O (%): 15%
Botrytis cinerea [1]; [6]
  Number of moulded strawberries/total number of 10 strawberries: 10 and 10/10
  Observed antifungal activity O (%): 11%
Botrytis cinerea [1]; [7]
  Number of moulded strawberries/total number of 10 strawberries: 10 and 10/10
  Observed antifungal activity O (%): 10%
Botrytis cinerea [1]; [8]
  Number of moulded strawberries/total number of 10 strawberries: 10 and 10/10
  Observed antifungal activity O (%): 5%
Botrytis cinerea [1]; 250 ppm natamycin, 250 ppm procymidone or both, day 10
  Observed antifungal activity O (%): 3%
Botrytis cinerea [1]; 250 ppm natamycin, 250 ppm procymidone or both, day 12
  Observed antifungal activity O (%): 0%
Botrytis cinerea [1]; 250 ppm natamycin, 500 ppm procymidone or both, day 5
  Observed antifungal activity O (%): 34%
Botrytis cinerea [1]; 250 ppm natamycin, 500 ppm procymidone or both, day 6
  Observed antifungal activity O (%): 15%
Botrytis cinerea [1]; 250 ppm natamycin, 500 ppm procymidone or both, day 7
  Observed antifungal activity O (%): 11%
Botrytis cinerea [1]; 250 ppm natamycin, 500 ppm procymidone or both, day 8
  Observed antifungal activity O (%): 10%
Botrytis cinerea [1]; 250 ppm natamycin, 500 ppm procymidone or both, day 9
  Observed antifungal activity O (%): 5%
Botrytis cinerea [1]; 500 ppm natamycin, 1000 ppm procymidone or both, day 4
  Observed antifungal activity O (%): 36%
Botrytis cinerea [1]; [9]
  Number of moulded strawberries/total number of 10 strawberries: 9 and 9/10
  Observed antifungal activity O (%): 12%
Botrytis cinerea [1]; [10]
  Number of moulded strawberries/total number of 10 strawberries: 10 and 10/10
  Observed antifungal activity O (%): 7%
Botrytis cinerea [1]; [11]
  Number of moulded strawberries/total number of 10 strawberries: 9 and 9/10
  Observed antifungal activity O (%): 12%
Botrytis cinerea [1]; [12]
  Number of moulded strawberries/total number of 10 strawberries: 9 and 9/10
  Observed antifungal activity O (%): 4%
Botrytis cinerea [1]; [13]
  Number of moulded strawberries/total number of 10 strawberries: 10 and 10/10
  Observed antifungal activity O (%): 7%
Botrytis cinerea [1]; 500 ppm natamycin, 2000 ppm procymidone or both, day 8
  Observed antifungal activity O (%): 5%
Botrytis cinerea [1]; 500 ppm natamycin, 2000 ppm procymidone or both, day 8-10
  Number of moulded strawberries/total number of 10 strawberries: 10 and 10/10
Botrytis cinerea [1]; 500 ppm natamycin, 2000 ppm procymidone or both, day 9
  Observed antifungal activity O (%): 3%
Botrytis cinerea [1]; 500 ppm natamycin, 2000 ppm procymidone or both, day 10
  Observed antifungal activity O (%): 3%
Botrytis cinerea [1]; [14]
  Number of moulded strawberries/total number of 10 strawberries: 10 and 10/10
  Observed antifungal activity O (%): 0%
Botrytis cinerea [1]; 500 ppm natamycin, 2000 ppm procymidone or both, day 13
  Observed antifungal activity O (%): 0%
Penicillium italicum; day 6
  Observed antifungal activity O (%): 82%
Penicillium italicum; day 8
  Observed antifungal activity O (%): 73%
Penicillium italicum; day 10
  Observed antifungal activity O (%): 66%
Penicillium italicum; day 13
  Observed antifungal activity O (%): 59%
Penicillium italicum; day 15
  Observed antifungal activity O (%): 55%
Penicillium italicum; day 18
  Observed antifungal activity O (%): 44%
Botrytis cinerea [2]; 1.5 ppm vinclozolin, 1.25 ppm procymidone, alone or natamycin + one of them, day 3
  Observed antifungal activity O (%): 0%
Botrytis cinerea [2]; 1.5 ppm vinclozolin, 1.25 ppm procymidone, alone or natamycin + one of them, day 6
  Observed antifungal activity O (%): 0%
Botrytis cinerea [2]; 3.0 ppm iprodione or both, day 5
  Observed antifungal activity O (%): 50%
Botrytis cinerea [2]; 7.0 ppm vinclozolin, 2.0 ppm procymidone, alone or natamycin + one of them, day 10
  Observed antifungal activity O (%): 0%
Botrytis cinerea [2]; 8.0 ppm iprodione or both, day 12
  Observed antifungal activity O (%): 0%
